Relative viability data for 4 molecules are collected here from the supplement of paper PMC10307832.

Each structure is given as a SMILES string.

The test system of the first assay is NCI-H1944. In words: relative viability (nuclei count vs DMSO), 5 days (fraction); higher = more cells survive. The following applies: first compound 4 µM. The method in brief: (§1)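 Each reported value is a median over duplicate plates. It expresses relative viability: treated-well nuclei count divided by vehicle-well nuclei count. Lung cancer cell lines in 1536-well plates were dosed by pin tool a day after seeding, alone with one drug or with a fixed anchor-drug dose plus five library-drug doses (not always all listed) in √10 steps, and nuclei were counted after 5 days.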
`Clc1ccc(Nc2nnc(Cc3ccncc3)c3ccccc23)cc1` [Vatalanib] + COc1cccc2cc(-c3nc([C@H]4CC[C@H](C(=O)O)CC4)n4ncnc(N)c34)[nH]c12 [OSI-027] (partner 0.5 µM): the relative viability is 0.336.
Molecule `Clc1ccc(Nc2nnc(Cc3ccncc3)c3ccccc23)cc1` [Vatalanib] + N=C(N)NC(=N)NCCc1ccccc1 [Phenformin] (partner 250 µM) had a relative viability of 0.19.
On the same count and under the same terms, then `Clc1ccc(Nc2nnc(Cc3ccncc3)c3ccccc23)cc1` [Vatalanib] + Nc1nc2[nH]cc(CCc3ccc(C(=O)N[C@@H](CCC(=O)O)C(=O)O)cc3)c2c(=O)[nH]1 [Pemetrexed] (partner 0.2 µM), with 0.558.

The subject of a further assay is NCI-H1975. Described as above. The following applies: first compound 0.04 µM. Put shortly:
as §1
Take `COc1cc(N2CCC(C(N)=O)CC2)ccc1Nc1nc(N)c(Cl)c(Nc2ccccc2S(=O)(=O)C(C)C)n1` [HG-5-88-01] + N=C(N)NC(=N)NCCc1ccccc1 [Phenformin] (partner 250 µM): the relative viability turned out to be 0.437.
Same read-out and setting: the same measure for `Clc1ccc(Nc2nnc(Cc3ccncc3)c3ccccc23)cc1` [Vatalanib] + COc1cccc2cc(-c3nc([C@H]4CC[C@H](C(=O)O)CC4)n4ncnc(N)c34)[nH]c12 [OSI-027] (partner 0.5 µM): 0.778; for `Clc1ccc(Nc2nnc(Cc3ccncc3)c3ccccc23)cc1` [Vatalanib] + N=C(N)NC(=N)NCCc1ccccc1 [Phenformin] (partner 250 µM): 0.405; for `Clc1ccc(Nc2nnc(Cc3ccncc3)c3ccccc23)cc1` [Vatalanib] + Nc1nc2[nH]cc(CCc3ccc(C(=O)N[C@@H](CCC(=O)O)C(=O)O)cc3)c2c(=O)[nH]1 [Pemetrexed] (partner 0.2 µM): 0.265.

The same assay, now with this note: first compound 0.1265 µM.
Take `COc1cc(N2CCC(C(N)=O)CC2)ccc1Nc1nc(N)c(Cl)c(Nc2ccccc2S(=O)(=O)C(C)C)n1` [HG-5-88-01] + N=C(N)NC(=N)NCCc1ccccc1 [Phenformin] (partner 250 µM): the relative viability is 0.416.
`Clc1ccc(Nc2nnc(Cc3ccncc3)c3ccccc23)cc1` [Vatalanib] + COc1cccc2cc(-c3nc([C@H]4CC[C@H](C(=O)O)CC4)n4ncnc(N)c34)[nH]c12 [OSI-027] (partner 0.5 µM) registered a relative viability of 0.739.
`Clc1ccc(Nc2nnc(Cc3ccncc3)c3ccccc23)cc1` [Vatalanib] + N=C(N)NC(=N)NCCc1ccccc1 [Phenformin] (partner 250 µM) registered a relative viability of 0.415.
On to `Clc1ccc(Nc2nnc(Cc3ccncc3)c3ccccc23)cc1` [Vatalanib] + Nc1nc2[nH]cc(CCc3ccc(C(=O)N[C@@H](CCC(=O)O)C(=O)O)cc3)c2c(=O)[nH]1 [Pemetrexed] (partner 0.2 µM), for which the relative viability was found to be 0.305.

Still in this assay, the particulars now being: first compound 0.4 µM.
As to `COc1cc(N2CCC(C(N)=O)CC2)ccc1Nc1nc(N)c(Cl)c(Nc2ccccc2S(=O)(=O)C(C)C)n1` [HG-5-88-01] + N=C(N)NC(=N)NCCc1ccccc1 [Phenformin] (partner 250 µM), the relative viability was found to be 0.354.
Same read-out and setting: then `Clc1ccc(Nc2nnc(Cc3ccncc3)c3ccccc23)cc1` [Vatalanib] + COc1cccc2cc(-c3nc([C@H]4CC[C@H](C(=O)O)CC4)n4ncnc(N)c34)[nH]c12 [OSI-027] (partner 0.5 µM), with 0.688; and `Clc1ccc(Nc2nnc(Cc3ccncc3)c3ccccc23)cc1` [Vatalanib] + N=C(N)NC(=N)NCCc1ccccc1 [Phenformin] (partner 250 µM), with 0.422; and `Clc1ccc(Nc2nnc(Cc3ccncc3)c3ccccc23)cc1` [Vatalanib] + Nc1nc2[nH]cc(CCc3ccc(C(=O)N[C@@H](CCC(=O)O)C(=O)O)cc3)c2c(=O)[nH]1 [Pemetrexed] (partner 0.2 µM), with 0.297.

Still in this assay, the particulars now being: first compound 1.265 µM.
Molecule `COc1cc(N2CCC(C(N)=O)CC2)ccc1Nc1nc(N)c(Cl)c(Nc2ccccc2S(=O)(=O)C(C)C)n1` [HG-5-88-01] + N=C(N)NC(=N)NCCc1ccccc1 [Phenformin] (partner 250 µM) yielded a relative viability of 0.365.
On the same count and under the same terms, the same measure for `Clc1ccc(Nc2nnc(Cc3ccncc3)c3ccccc23)cc1` [Vatalanib] + COc1cccc2cc(-c3nc([C@H]4CC[C@H](C(=O)O)CC4)n4ncnc(N)c34)[nH]c12 [OSI-027] (partner 0.5 µM): 0.568.
Molecule `Clc1ccc(Nc2nnc(Cc3ccncc3)c3ccccc23)cc1` [Vatalanib] + N=C(N)NC(=N)NCCc1ccccc1 [Phenformin] (partner 250 µM) gave a relative viability of 0.357.
The same measure, in the same setting: then `Clc1ccc(Nc2nnc(Cc3ccncc3)c3ccccc23)cc1` [Vatalanib] + Nc1nc2[nH]cc(CCc3ccc(C(=O)N[C@@H](CCC(=O)O)C(=O)O)cc3)c2c(=O)[nH]1 [Pemetrexed] (partner 0.2 µM), with 0.28.

Still in this assay, the particulars now being: first compound 4 µM.
In turn, `COc1cc(N2CCC(C(N)=O)CC2)ccc1Nc1nc(N)c(Cl)c(Nc2ccccc2S(=O)(=O)C(C)C)n1` [HG-5-88-01] + N=C(N)NC(=N)NCCc1ccccc1 [Phenformin] (partner 250 µM) registered a relative viability of 0.188.
On the same count and under the same terms, then `Clc1ccc(Nc2nnc(Cc3ccncc3)c3ccccc23)cc1` [Vatalanib] + COc1cccc2cc(-c3nc([C@H]4CC[C@H](C(=O)O)CC4)n4ncnc(N)c34)[nH]c12 [OSI-027] (partner 0.5 µM), with 0.673; and `Clc1ccc(Nc2nnc(Cc3ccncc3)c3ccccc23)cc1` [Vatalanib] + N=C(N)NC(=N)NCCc1ccccc1 [Phenformin] (partner 250 µM), with 0.4.
The same measure, in the same setting: the same measure for `Clc1ccc(Nc2nnc(Cc3ccncc3)c3ccccc23)cc1` [Vatalanib] + Nc1nc2[nH]cc(CCc3ccc(C(=O)N[C@@H](CCC(=O)O)C(=O)O)cc3)c2c(=O)[nH]1 [Pemetrexed] (partner 0.2 µM): 0.286.

The subject of the next assay is NCI-H1666. The assay is described as above. The following applies: first compound 0.04 µM. Put shortly: as §1
`COc1cc(N2CCC(C(N)=O)CC2)ccc1Nc1nc(N)c(Cl)c(Nc2ccccc2S(=O)(=O)C(C)C)n1` [HG-5-88-01] + N=C(N)NC(=N)NCCc1ccccc1 [Phenformin] (partner 250 µM) gave a relative viability of 0.581.
In the case of `Clc1ccc(Nc2nnc(Cc3ccncc3)c3ccccc23)cc1` [Vatalanib] + COc1cccc2cc(-c3nc([C@H]4CC[C@H](C(=O)O)CC4)n4ncnc(N)c34)[nH]c12 [OSI-027] (partner 0.5 µM), the relative viability worked out at 0.852.
The same measure, in the same setting: then `Clc1ccc(Nc2nnc(Cc3ccncc3)c3ccccc23)cc1` [Vatalanib] + N=C(N)NC(=N)NCCc1ccccc1 [Phenformin] (partner 250 µM), with 0.563; and `Clc1ccc(Nc2nnc(Cc3ccncc3)c3ccccc23)cc1` [Vatalanib] + Nc1nc2[nH]cc(CCc3ccc(C(=O)N[C@@H](CCC(=O)O)C(=O)O)cc3)c2c(=O)[nH]1 [Pemetrexed] (partner 0.2 µM), with 0.845.

The assay is the same for the next values; noted with them: first compound 0.1265 µM.
Turning to `COc1cc(N2CCC(C(N)=O)CC2)ccc1Nc1nc(N)c(Cl)c(Nc2ccccc2S(=O)(=O)C(C)C)n1` [HG-5-88-01] + N=C(N)NC(=N)NCCc1ccccc1 [Phenformin] (partner 250 µM), the relative viability turned out to be 0.57.
On the same count and under the same terms, the same measure for `Clc1ccc(Nc2nnc(Cc3ccncc3)c3ccccc23)cc1` [Vatalanib] + COc1cccc2cc(-c3nc([C@H]4CC[C@H](C(=O)O)CC4)n4ncnc(N)c34)[nH]c12 [OSI-027] (partner 0.5 µM): 0.815.
